Measured values taken from the supplement of paper PMC10307832.

Columns and labels:
Experiment in all cases: relative viability (nuclei count vs DMSO), 5 days (fraction); higher = more cells survive
[1] = compound: C1=CC2=NC=CN=C2C=C1/C=C/3\C(=O)NC(=O)S3 + Cc1cc(Nc2cc(N3CCN(C)CC3)nc(Sc3ccc(NC(=O)C4CC4)cc3)n2)n[nH]1 [Tozasertib] (partner 0.1 µM)
How it was run: (§1)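 The day after seeding in 1536-well plates, lung cancer cell lines were treated by pin tool with a single drug, or with a fixed anchor-drug dose together with five library-drug doses (not always all listed) in √10 steps. After 5 days, a combined fix-and-stain solution (final 0.05% Triton X-100, 1% formaldehyde, 1 ug/ml Hoechst) was added. Nuclei counted on 4× images gave relative viability as treated counts over vehicle counts, reported as the median of duplicate plates.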

[2] = compound: CCN1CCN(c2ccc(Nc3cc(N(C)C(=O)Nc4c(Cl)c(OC)cc(OC)c4Cl)ncn3)cc2)CC1 [BGJ398] + CC(=O)c1c(C)c2cnc(Nc3ccc(N4CCNCC4)cn3)nc2n(C2CCCC2)c1=O [Palbociclib] (partner 0.5 µM)
How it was run: as §1

[3] = compound: CCN1CCN(c2ccc(Nc3cc(N(C)C(=O)Nc4c(Cl)c(OC)cc(OC)c4Cl)ncn3)cc2)CC1 [BGJ398] + CC1(C)CCC(c2ccc(Cl)cc2)=C(CN2CCN(c3ccc(C(=O)NS(=O)(=O)c4ccc(N[C@H](CCN5CCOCC5)CSc5ccccc5)c(S(=O)(=O)C(F)(F)F)c4)cc3)CC2)C1 [Navitoclax] (partner 0.5 µM)
How it was run: as §1

[4] = compound: CCN1CCN(c2ccc(Nc3cc(N(C)C(=O)Nc4c(Cl)c(OC)cc(OC)c4Cl)ncn3)cc2)CC1 [BGJ398] + C[C@]1(O)C[C@@H](c2nc(-c3ccc4ccc(-c5ccccc5)nc4c3)c3c(N)nccn32)C1 [Linsitinib] (partner 1 µM)
How it was run: as §1

Row | Cell Line | relative viability ([1]; first compound 0.02 µM) | relative viability ([1]; first compound 0.06325 µM) | relative viability ([1]; first compound 0.2 µM) | relative viability ([1]; first compound 0.6325 µM) | relative viability ([1]; first compound 2 µM) | relative viability ([2]; first compound 0.01 µM) | relative viability ([2]; first compound 0.1 µM) | relative viability ([2]; first compound 1 µM) | relative viability ([3]; first compound 0.01 µM) | relative viability ([3]; first compound 0.1 µM) | relative viability ([3]; first compound 0.3162 µM) | relative viability ([3]; first compound 1 µM) | relative viability ([4]; first compound 0.01 µM) | relative viability ([4]; first compound 0.1 µM) | relative viability ([4]; first compound 0.3162 µM) | relative viability ([4]; first compound 1 µM) | relative viability ([2]; first compound 0.03162 µM) | relative viability ([2]; first compound 0.3162 µM) | relative viability ([3]; first compound 0.03162 µM) | relative viability ([4]; first compound 0.03162 µM)
1 | PC-3 [JPC-3] | 0.811 | 0.811 | 0.905 | 0.913 | 0.869 | 0.591 | 0.522 | 0.569 | 0.756 | 0.773 | 0.637 | 0.777 | 1.01 | 0.959 | 0.864 | 1.01 |  |  |  | 
2 | NCI-H2228 | 0.302 | 0.228 | 0.234 | 0.21 | 0.221 | 0.645 | 0.922 | 0.738 | 0.728 | 0.998 | 0.893 | 0.867 | 0.63 | 0.19 | 0.852 | 0.719 | 0.885 | 0.638 | 1.04 | 0.438
3 | HOP-62 | 0.352 | 0.354 | 0.34 | 0.328 | 0.363 | 0.464 | 0.537 | 0.492 | 0.915 | 1.1 | 1.02 | 1.01 | 1 | 1.02 | 0.876 | 0.946 | 0.509 | 0.473 | 1 | 1.11
4 | IA-LM |  |  |  |  |  |  |  |  | 0.614 | 0.764 | 0.724 | 0.917 | 0.532 | 0.501 | 0.496 | 0.481 |  |  | 0.798 | 0.499
5 | NCI-H650 | 0.777 | 0.725 | 0.705 | 0.749 | 0.55 | 0.313 | 0.321 | 0.315 |  |  |  |  | 0.822 | 0.959 | 0.875 | 0.909 | 0.375 | 0.379 |  | 1.01
6 | NCI-H1792 |  |  |  |  |  | 0.637 | 0.61 | 0.532 | 0.659 | 0.642 | 0.601 | 0.553 | 0.482 | 0.551 | 0.63 | 0.287 | 0.733 | 0.655 | 0.561 | 0.511
7 | ChaGo-K-1 | 0.243 | 0.215 | 0.248 | 0.232 | 0.239 | 0.914 | 0.944 | 0.923 | 1.06 | 0.76 | 0.69 | 0.444 |  |  |  |  | 0.959 | 0.962 | 0.913 | 
8 | NCI-H522 | 0.64 | 0.504 | 0.641 | 0.542 | 0.549 | 1.13 | 1.06 | 0.859 |  |  |  |  |  |  |  |  | 1.07 | 0.932 |  | 
9 | NCI-H1299 |  |  |  |  |  |  |  |  | 1.06 | 1.03 | 1.03 | 1.06 | 0.926 | 0.974 | 0.928 | 0.727 |  |  | 1.06 | 1.03
